Experiments:
[1] = system: HCT15 (colon cancer cells); assay: in vitro cytotoxicity, MTT assay, HCT15; type: cell-based, human; conditions: 72 h incubation, three independent experiments, read-out: IC50 values against HCT15 cancer cell line
Description: (§1) The complexes, [Au(IPr)Cl] and [Au(IPr)(Seu)]PF6 (1) were tested for their in vitro cytotoxic effects against human cell lines; MCF7 (breast cancer), HCI15 (colon cancer) and A549 (lung carcinoma) as reported previously. See M. Altaf, M. Monim-ul-Mehboob, A. A. A. Seliman, A. A. Tsai), V. Dhuna, G. Bhatia, K. Dhuna, Synthesis, X-ray Structures, Spectroscopic Analysis and Anticancer Activity of Novel Gold(I) Carbene Complexes, J. Organomet. Chem, 765 (2014) 68-79, incorporated herein by reference in its entirety. The cells were seeded at the concentration of 3×10^3 cells/well in 100 μL of DMEM containing 10% fetal bovine serum (FBS) in a 96-well tissue culture plate and incubated for 72 h at 37° C., 5% CO2 and 90% relative humidity in a CO2 incubator. After that 100 μL of 100, 50, 25 and 12.5 μM solutions of cisplatin and gold(I) complexes prepared in DMEM were added to the cells and the cultures were incubated for 72 h. The medium in the wells was cast off and 100 μL of DMEM containing MTT (0.5 mg/ml) was added to the wells, with subsequent incubation in the CO2 incubator at 37° C. in the dark for 4 h. After incubation, purple-colored formazan produced by the cells appeared as dark crystals in the bottom of the wells. The culture medium was carefully removed from each well to prevent disruption of the monolayer and 100 μL of dimethylsulfoxide (DMSO) was added to each well. The solution in the wells was thoroughly mixed to dissolve the formazan crystals which produce a purple solution. The absorbance of the 96 well-plates was measured at 570 nm with LabSystems Multiskan EX-ELISA reader against a reagent blank. The experimental results are calculated as the micromolar concentration of 50% cell growth inhibition (IC50) of each drug. The MTT assay was carried out in three independent experiments for each analysis. […]

A549 (lung carcinoma) = assay: in vitro cytotoxicity, MTT assay, A549; type: cell-based, human; conditions: 72 h incubation, three independent experiments, read-out: IC50 values against A549 cancer cell line
Description: The complexes, [Au(IPr)Cl] and [Au(IPr)(Seu)]PF6 (1) were tested for their in vitro cytotoxic effects against human cell lines; MCF7 (breast cancer), HCI15 (colon cancer) and A549 (lung carcinoma) as reported previously. See M. Altaf, M. Monim-ul-Mehboob, A. A. A. Seliman, A. A. Tsai), V. Dhuna, G. Bhatia, K. Dhuna, Synthesis, X-ray Structures, Spectroscopic Analysis and Anticancer Activity of Novel Gold(I) Carbene Complexes, J. Organomet. Chem, 765 (2014) 68-79, incorporated herein by reference in its entirety. The cells were seeded at the concentration of 3×10^3 cells/well in 100 μL of DMEM containing 10% fetal bovine serum (FBS) in a 96-well tissue culture plate and incubated for 72 h at 37° C., 5% CO2 and 90% relative humidity in a CO2 incubator. […] The medium in the wells was cast off and 100 μL of DMEM containing MTT (0.5 mg/ml) was added to the wells, with subsequent incubation in the CO2 incubator at 37° C. in the dark for 4 h. After incubation, purple-colored formazan produced by the cells appeared as dark crystals in the bottom of the wells. The culture medium was carefully removed from each well to prevent disruption of the monolayer and 100 μL of dimethylsulfoxide (DMSO) was added to each well. The solution in the wells was thoroughly mixed to dissolve the formazan crystals which produce a purple solution. The absorbance of the 96 well-plates was measured at 570 nm with LabSystems Multiskan EX-ELISA reader against a reagent blank. The experimental results are calculated as the micromolar concentration of 50% cell growth inhibition (IC50) of each drug. The MTT assay was carried out in three independent experiments for each analysis.
The complexes, [Au(Ipr)Cl] and [Au(Ipr)(Seu)]PF6 or Complex (I), as well as cisplatin (standard anticancer drug) were tested for in vitro cytotoxicity against three human cancer cell lines; A549 (lung carcinoma), HCT15 (colon cancer cells) and MCF7 (breast cancer cells) using MTT assay.
The IC50 values (as μM) obtained from the plot of the concentration of compounds against the percentage of cell viability are given in Table 4. […]

[2] = system: MCF7 (breast cancer cells); assay: in vitro cytotoxicity, MTT assay, MCF7; type: cell-based, human; conditions: 72 h incubation, three independent experiments, read-out: IC50 values against MCF7 cancer cell line
Description: as §1

[3] = solubility in phosphate buffer estimated from SWSV; type: physicochemical; conditions: 0.1 M phosphate buffer (pH 7.0); estimation based on the highest soluble concentration
Description: (§2) Electrochemical (Square wave stripping voltammetry, SWSV) measurements were performed on a CH Instrument (CHI 1232A) potentiostat. Electrochemical cell comprises of a platinum wire as a counter electrode, an Ag/AgCl saturated with KCl as reference electrode and glassy carbon electrode (GCE; 3.0 mm diameter, Model CHI104, CH Instruments, Austin, Tex.) as a working electrode inserted into 2.0 mL glass cell containing phosphate buffer solution, pH 7.0 as supporting electrolyte. 0.1 M buffer solution was prepared by mixing, appropriate volumes of 0.2 M monosodium phosphate and disodium phosphate prepared with distilled water. Stock solutions of the complex prepared with methanol, while L-tyrosine and L-tryptophan were prepared by dissolving in 0.10 M NaOH in ratio 1:4 with distilled water. GCE was polished with 0.05 μm alumina, rinsed with distilled water prior to every SWSV measurements at room temperature in a quiescent condition at potential windows between −0.20 V and 1.20 V for the stability and 0.00 V and 1.20 V for the interaction studies. Working conditions are; pulse width (increment) 4 mV, pulse height (amplitude) 25 mV and frequency, 15 Hz.
(§3) The stability and electrochemical behavior of complex 1 were examined by its electroactive properties in phosphate buffer solution of pH 7.0 using SWSV technique (Square wave stripping voltammetry). […]

[4] = stability by square wave stripping voltammetry (SWSV) in phosphate buffer; type: physicochemical; conditions: phosphate buffer pH 7.0, SWSV, 50, 75 and 100 μM
Description: as §2, §3

[5] = stability in polar solvents; type: physicochemical; conditions: water, methanol, ethanol, acetone; deuterated solvents such as dichloromethane

| Molecule | IC50 [1] [µM] | IC50 (A549 (lung carcinoma)) [µM] | IC50 [2] [µM] | solubility in phosphate buffer [3] [mg/100 ml] | stability in aqueous solution [4] | stability in polar solvents [5] |
| --- | --- | --- | --- | --- | --- | --- |
| CC(C)c1cccc(C(C)C)c1-n1cc[n+](-c2c(C(C)C)cccc2C(C)C)[c]1[Au-][Se+]=C(N)N.F[P-](F)(F)(F)(F)F [Complex 1, [Au(IPr)(Seu)]PF6] | 76 ± 2 | 82 ± 1 | 75 ± 3 | ≥ 8.53 | stable in aqueous solution | stable in polar solvents such as water, methanol, ethanol and acetone |
| N.N.[Cl][Pt][Cl] [Cisplatin] | 32 ± 2 | 42 ± 2 | 23 ± 4 | – | – | – |
| chlorido[1,3-Bis(2,6-di isopropylphenyl)imidazol-2-ylidene]gold(I) [[Au(Ipr)Cl]] | 122 ± 1 | 180 ± 2 | 110 ± 2 | – | – | – |
